Assay results taken from ChEMBL document CHEMBL4342447, “l-Phenylalanine Alters the Privileged Secondary Metabolite Production in the Marine-Derived Fungus Trichoderma erinaceum F1-1” (J Nat Prod, 2020).

Tests used:
[1] = test system: MDA-MB-435; assay: Cytotoxicity against human MDA-MB-435 cells assessed as reduction in cell viability by MTT assay; format: functional, cell-based
[2] = test system: A549; assay: Cytotoxicity against human A549 cells assessed as reduction in cell viability by MTT assay; format: functional, cell-based

CCC(=O)Oc1cc(C)cc(Oc2cc(C)cc(OC)c2)c1 showed an IC50 [1] of 31.9 µM.

For COc1cc(C)cc(Oc2cc(C)cc(OC)c2)c1, the IC50 [1] was 12.5 µM.

For CC(C)(c1ccc(O)cc1)c1ccc(OCC(O)COc2ccc(C(C)(C)c3ccc(O)cc3)cc2)cc1, the IC50 [1] was 22.3 µM and the IC50 [2] was 18.4 µM.

Compound COc1cc(C)cc(Oc2cc(C)cc(O)c2)c1 [CORDYOL E] has an IC50 [1] of 41.1 µM.
